Measurements reported in US20250115943A1, “SYSTEM AND METHOD FOR ANTIMICROBIAL SUSCEPTIBILITY TESTING” (priority 2023, published 2025).
Converted amounts (≈) assume the structure as drawn. Read-outs that look alike come from different tables or passages of the source.

What was measured:
[1] = system: E. coli ATCC 25922; assay: reference broth microdilution (rBMD); format: cell-based; conditions: Escherichia coli, ATCC25922, Table 7, geometric mean MIC rounded to nearest 2-fold dilution, n = 3
Procedure: (§1) Following optimization of the BLAST assay, two other tests were performed in which 12 antibiotics (covering different classes) and 8 bacterial strains (Gram-positive and Gram-negative) were assayed using the same method as described above. Different bacterial strains were tested against different antibiotics and for each pair tested, the BLAST MIC value was compared to the CLSI QC range where available, or to the reference broth microdilution (rBMD) MIC which was determined in parallel with the BLAST assay following the CLSI protocols (see references [9]).
The inoculated urine cultures were incubated overnight at 35+2° C. Each urine culture was centrifuged, and the sediment used to prepare the BLAST inoculum of 5.0×10^5 CFU/mL to start the assay as described in the protocols section. […] The spiked urine samples were tested in parallel with isolates and the resultant BLAST MIC values were compared. In addition to the BLAST test, all the samples were also tested using the reference broth microdilution (rBMD) method and the MIC values were compared.

[2] = system: P. aeruginosa ATCC 27853; conditions: CLSI M100-Ed34E; cited from earlier work
[3] = system: E. coli; conditions: cited from earlier work
[4] = system: P. mirabilis LSI 4933; assay: CytoSPAR BLAST antibiotic susceptibility test; format: cell-based
Description: (§2) The disclosed technology, which is referred to as the CytoSPAR BLAST (Bacteria Labeling Antibiotic Susceptibility Test) system, is used to quantitatively assess bacterial minimal inhibitory concentration of antibiotics for in vitro susceptibility testing. Used as an aid in diagnosis for clinicians in determining potential treatment options for patients suspected of having a microbial infection, BLAST is intended to determine susceptibility of microorganisms to the listed antibiotics (or other antimicrobials) according to manufacturer's standards. The system is intended for use with clinical isolates from liquid culture and colonies grown on agar (solid medium) or directly from urine samples. Certain implementations of BLAST determine antibiotic susceptibility for a wide range of bacteria obtained from various types of patient samples, including samples from individuals suffering from urinary tract infections. The disclosed technology includes a high-throughput assay that directly detects bacterial susceptibility to a library of frequently used antibiotics and covers both Gram-negative and Gram-positive bacteria.
(§3) The test incorporates a non-canonical amino acid (ncAA) into newly produced proteins. The incorporated ncAA includes a reactive group which allows a specific modification and detection of the living bacteria. The assay involves bacterial incorporation of the ncAA, a chemical reaction between a reactive group and a fluorophore-tagged ligand, and detection of the newly fluorescent-tagged bacteria using a fluorescent plate reader or functionally similar device. The ncAA is added to bacterial growth media and is incorporated into newly synthesized bacterial proteins. The reactive groups on the ncAA are not naturally found in bacteria and act as a specific reactive group for bacteria undergoing active protein synthesis. […] The entire process is performed in a microtiter filter plate for high-throughput scale-up. Alternatively, a normal 96-well plate can also be used in which case centrifugation is used to wash the plate instead of filtration.
(§4) In an example embodiment, bacterial samples are first diluted and incubated in acclimatization media. After treatment with one or more antimicrobials, the ncAA is added and is taken up by living bacteria during protein biosynthesis in a process called labeling. […] The Click-Chemistry reaction between the alkyne group of the ncAA and the azide group of the fluorophore-tagged ligand requires the presence of copper in the reduced state-copper (I). In other implementations, the functional groups of the click chemistry reaction can be changed so that the ncAA has the azide group and the dye has the alkyne group. […] Other reducing agents may be used in the BLAST assay, for example, aldoses (sugars) including glyceraldehyde, glucose, and ribose to replace sodium ascorbate. Likewise, alternate chelators may be used (e.g., histidine in place of BTTAA). In some implementations, metal-free click chemistry reactions are performed without using copper.
(§5) Using the BLAST system, tests can be performed on isolates or direct urine samples. Isolates may be from urine, blood, or other body fluids. Isolated bacteria may be either Gram-positive or Gram-negative. In an example implementation, living bacterial samples in acclimatization media (Buffer A) are distributed in a microtiter filter plate, wherein certain predetermined wells include antibiotics of interest at different concentrations. These antibiotics are arrayed with increasing concentrations in adjacent wells so that the bacterial response can be measured against each specific concentration. The response is measured quantitatively, and a value that corresponds to the ability of the bacteria to metabolize and grow is measured.

[5] = system: E. coli LSI 770; assay: CytoSPAR BLAST antibiotic susceptibility test; format: cell-based; conditions: E. coli LSI 770; for MIC: Escherichia coli, LSI770
Description: as §2, §3, §4, §5

[6] = system: P. mirabilis LSI 4698; assay: CytoSPAR BLAST antibiotic susceptibility test; format: cell-based
Description: as §2, §3, §4, §5

[7] = system: E. coli ATCC 25922; assay: CytoSPAR BLAST antibiotic susceptibility test; format: cell-based; conditions: for MIC: Escherichia coli; for S, I, R: susceptible, intermediate, resistant category
Description: as §2, §3, §4, §5

[8] = system: S. aureus ATCC 29213; assay: CytoSPAR BLAST antibiotic susceptibility test; format: cell-based; conditions: for S, I, R: susceptible, intermediate, resistant category; for MIC: Staphylococcus aureus
Description: as §2, §3, §4, §5

[9] = system: K. pneumoniae LSI CT1045; assay: CytoSPAR BLAST antibiotic susceptibility test; format: cell-based
Description: as §2, §3, §4, §5

[10] = system: P. aeruginosa ATCC 27853; assay: CytoSPAR BLAST antibiotic susceptibility test; format: cell-based; conditions: for S, I, R: susceptible, intermediate, resistant category
Description: as §2, §3, §4, §5

[11] = system: K. pneumoniae LSI 4552; assay: CytoSPAR BLAST antibiotic susceptibility test; format: cell-based
Description: as §2, §3, §4, §5

[12] = system: P. mirabilis LSI 4933; assay: reference broth microdilution (rBMD); format: cell-based; conditions: Proteus mirabilis, LSI4933
Procedure: as §1

[13] = system: K. pneumoniae LSI CT1045; assay: reference broth microdilution (rBMD); format: cell-based; conditions: Klebsiella pneumoniae, LSICT1045
Procedure: as §1

[14] = system: K. pneumoniae LSI 4552; assay: reference broth microdilution (rBMD); format: cell-based; conditions: Klebsiella pneumoniae, LSI4552
Procedure: as §1

[15] = system: S. aureus ATCC 29213; conditions: CLSI M100-Ed34E, cited from earlier work
[16] = system: E. coli strain #14 (CDC); conditions: strain designation, not a BLAST readout; cited from earlier work
[17] = system: S. saprophyticus; conditions: cited from earlier work
[18] = system: E. coli ATCC 25922; conditions: E. coli strain #25922 (ATCC); strain designation, not a BLAST readout; cited from earlier work
[19] = system: E. coli strain #551 (CDC); assay: microbe, parasite or virus in culture; conditions: Escherichia coli, read-out: BLAST MIC, E. coli resistant strain (CDC 551); […]10^8 CFUs/mL; cut-off 0.7; FIG. 11C
Description: (§6) The disclosed technology, which is referred to as the CytoSPAR BLAST (Bacteria Labeling Antibiotic Susceptibility Test) system, is used to quantitatively assess bacterial minimal inhibitory concentration of antibiotics for in vitro susceptibility testing. Used as an aid in diagnosis for clinicians in determining potential treatment options for patients suspected of having a microbial infection, BLAST is intended to determine susceptibility of microorganisms to the listed antibiotics (or other antimicrobials) according to manufacturer's standards. The system is intended for use with clinical isolates from liquid culture and colonies grown on agar (solid medium) or directly from urine samples. […]
(§7) The test incorporates a non-canonical amino acid (ncAA) into newly produced proteins. […] The assay involves bacterial incorporation of the ncAA, a chemical reaction between a reactive group and a fluorophore-tagged ligand, and detection of the newly fluorescent-tagged bacteria using a fluorescent plate reader or functionally similar device. […]
(§8) Using the BLAST system, tests can be performed on isolates or direct urine samples. […] These antibiotics are arrayed with increasing concentrations in adjacent wells so that the bacterial response can be measured against each specific concentration. […]

[20] = system: E. coli strain #14 (CDC); assay: microbe, parasite or virus in culture; conditions: Escherichia coli, read-out: BLAST MIC
Description: as §6, §7, §8

[21] = system: E. coli strain #551 (CDC); conditions: strain designation, not a BLAST readout; cited from earlier work
[22] = system: E. coli, S. saprophyticus and S. aureus; conditions: for E. coli, S. saprophyticus and S. aureus as reported by the FDA and CLSI (Table 5); cited from earlier work
[23] = susceptible, intermediate, resistant category

C[C@H]1COc2c(N3CCN(C)CC3)c(F)cc3c(=O)c(C(=O)O)cn1c23 [Levofloxacin, levofloxacin]
MIC [1]: 0.02 µg/mL (≈ 0.0553 µM) | MIC CLSI QC Range [2]: 0.5 to 4.0 µg/mL | breakpoint ([3]; stated with the CLSI QC range in FIG. 22 legend): 0.5 µg/mL | MIC ([4]; Proteus mirabilis, LSI4933, Table 7): 1.1 µg/mL (≈ 3.04 µM) | S, I, R [4, 23]: Susceptible | S, I, R [5, 23]: Resistant | MIC ([5]; Table 7, read-out: MIC BLAST): 36 µg/mL (≈ 99.6 µM) | MIC ([5]; Table 8, isolates, 5 × 10^5 CFU/mL, read-out: MIC BLAST Isolates): 35.6 µg/mL (≈ 98.5 µM) | MIC ([5]; Table 8, spiked urine sample, 5 × 10^5 CFU/mL, read-out: MIC BLAST Spiked Urine): 35.6 µg/mL (≈ 98.5 µM) | MIC ([6]; Proteus mirabilis, LSI4698, Table 7): 8.9 µg/mL (≈ 24.6 µM) | S, I, R [6, 23]: Susceptible | MIC ([7]; ATCC25922, Table 7, read-out: MIC BLAST): 0.01 µg/mL (≈ 0.0277 µM) | MIC ([7]; ATCC25922, read-out: MIC BLAST Isolates, Table 8, isolates, 5 × 10^5 CFU/mL): 0.01 µg/mL (≈ 0.0277 µM) | MIC ([7]; ATCC25922, read-out: MIC BLAST Spiked Urine, Table 8, spiked urine sample, 5 × 10^5 CFU/mL): 0.01 µg/mL (≈ 0.0277 µM) | S, I, R [7]: Susceptible | S, I, R ([8]; S. aureus ATCC 29213): Susceptible | MIC ([8]; ATCC29213, S. aureus ATCC 29213, 5×10^6 CFUs/mL, cutoff 0.8, FIGS. 19-21, read-out: BLAST MIC): 0.125 µg/mL (≈ 0.346 µM) | MIC ([8]; ATCC29213, Table 7, S. aureus ATCC 29213, read-out: MIC BLAST): 0.28 µg/mL (≈ 0.775 µM) | MIC ([8]; ATCC29213, Table 8, S. aureus ATCC 29213, isolates, 5 × 10^5 CFU/mL, read-out: MIC BLAST Isolates): 0.28 µg/mL (≈ 0.775 µM) | MIC ([8]; ATCC29213, Table 8, S. aureus ATCC 29213, spiked urine sample, 5 × 10^5 CFU/mL, read-out: MIC BLAST Spiked Urine): 0.28 µg/mL (≈ 0.775 µM) | MIC ([9]; Klebsiella pneumoniae, LSICT1045, Table 7): > 71 µg/mL | S, I, R [9, 23]: Resistant | MIC ([10]; Pseudomonas aeruginosa, ATCC27853, Table 6, optimized BLAST): 8 µg/mL (≈ 22.1 µM) | S, I, R [10]: Susceptible | MIC ([11]; Klebsiella pneumoniae, LSI4552, Table 7): 0.06 µg/mL (≈ 0.166 µM) | S, I, R [11, 23]: Susceptible | MIC [12]: 1 µg/mL (≈ 2.77 µM) | MIC [13]: 128 µg/mL (≈ 354 µM) | MIC [14]: 0.12 µg/mL (≈ 0.332 µM) | MIC CLSI QC Range ([15]; listed as levofloxacin): 0.063 to 0.5 µg/mL | MIC CLSI QC Range [15]: 0.06 to 0.5 µg/mL

O=C1CN(/N=C/c2ccc([N+](=O)[O-])o2)C(=O)N1 [Nitrofurantoin, nitrofurantoin]
susceptibility of the strain as listed [16]: Intermediate resistance | CLSI breakpoint I ([17]; intermediate): 64 µg/mL | FDA breakpoint I ([17]; intermediate): 64 µg/mL | CLSI breakpoint S ([17]; susceptible): 32 µg/mL | FDA breakpoint S ([17]; susceptible): 32 µg/mL | susceptibility of the strain as listed [18]: Susceptible | MIC [19]: 32 µg/mL (≈ 134 µM) | MIC [20]: 32 µg/mL (≈ 134 µM) | CLSI breakpoint I ([3]; intermediate): 64 µg/mL | FDA breakpoint I ([3]; intermediate): 64 µg/mL | CLSI breakpoint S ([3]; susceptible): 32 µg/mL | FDA breakpoint S ([3]; susceptible): 32 µg/mL | S, I, R [7]: Susceptible | S, I, R ([8]; S. aureus ATCC 29213): Susceptible | MIC ([8]; ATCC29213, S. aureus ATCC 29213, 5×10^5 CFUs/mL, FIG. 15, read-out: BLAST MIC): 4 µg/mL (≈ 16.8 µM) | MIC ([8]; ATCC29213, Table 6, S. aureus ATCC 29213, optimized BLAST, cutoff 0.8, read-out: MIC BLAST): 4 µg/mL (≈ 16.8 µM) | S, I, R [10]: Resistant | susceptibility of the strain as listed [21]: Resistant | CLSI QC range [22]: 4 to 16 µg/mL
